Measurements taken from the NIST ThermoML archive (doi:10.1021/je060271a).

Conditions: 343.14 K, Liquid, Vibrating tube method

CCCCCCC(=O)OCC(COC(=O)CCCCCC)(COC(=O)CCCCCC)COC(=O)CCCCCC [pentaerythritol tetraheptanoate]
Conditions | mass density [kg/m3]
14033 kPa | 950.8
14046 kPa | 950.8
14058 kPa | 950.9
14074 kPa | 950.7
14087 kPa | 950.9
14100 kPa | 950.9
14113 kPa | 950.8
14129 kPa | 950.8
14142 kPa | 950.8
14157 kPa | 951
14170 kPa | 951
14183 kPa | 951
14199 kPa | 951
14212 kPa | 950.9
14225 kPa | 950.9
14239 kPa | 951
14255 kPa | 951
14268 kPa | 950.9
14281 kPa | 951.1
14298 kPa | 951
14311 kPa | 951.1
14324 kPa | 951
14340 kPa | 950.9
14354 kPa | 951.1
14367 kPa | 951.1
14383 kPa | 951
16135 kPa | 952.3
16152 kPa | 952.4
16173 kPa | 952.3
16190 kPa | 952.3
16208 kPa | 952.3
16228 kPa | 952.4
16245 kPa | 952.4
16263 kPa | 952.3
16283 kPa | 952.4
16301 kPa | 952.4
16319 kPa | 952.4
16339 kPa | 952.5
16357 kPa | 952.5
16376 kPa | 952.4
16394 kPa | 952.5
16415 kPa | 952.5
16433 kPa | 952.5
16451 kPa | 952.7
16472 kPa | 952.5
16490 kPa | 952.5
16508 kPa | 952.6
16526 kPa | 952.6
16548 kPa | 952.6
16566 kPa | 952.5
16585 kPa | 952.6
16607 kPa | 952.7
16626 kPa | 952.7
16645 kPa | 952.7
16664 kPa | 952.6
16682 kPa | 952.6
16704 kPa | 952.7
16722 kPa | 952.8
16744 kPa | 952.8
16763 kPa | 952.7
16781 kPa | 952.7
16800 kPa | 952.7
16822 kPa | 952.8
16841 kPa | 952.8
16863 kPa | 952.8
16901 kPa | 952.8
16924 kPa | 952.8
16943 kPa | 952.9
16962 kPa | 953
16981 kPa | 952.9
17004 kPa | 952.9
17022 kPa | 953
17042 kPa | 953
17065 kPa | 953
17084 kPa | 953.1
17107 kPa | 952.9
17126 kPa | 952.9
17146 kPa | 953
17165 kPa | 953
17188 kPa | 953.1
17208 kPa | 953
17227 kPa | 953.1
17251 kPa | 953.1
17270 kPa | 953.2
17294 kPa | 953.2
17314 kPa | 953.2
17334 kPa | 953.1
17358 kPa | 953.1
17378 kPa | 953.1
17398 kPa | 953.2
17419 kPa | 953
17443 kPa | 953.1
17593 kPa | 953.4
17613 kPa | 953.2
17638 kPa | 953.3
17659 kPa | 953.4
17680 kPa | 953.3
17701 kPa | 953.4
17722 kPa | 953.4
17747 kPa | 953.4
17768 kPa | 953.5
17789 kPa | 953.5
17815 kPa | 953.5
17835 kPa | 953.5
17860 kPa | 953.4
17902 kPa | 953.5
17928 kPa | 953.4
18040 kPa | 953.6
18066 kPa | 953.6
18088 kPa | 953.5
18109 kPa | 953.6
18130 kPa | 953.7
